From PubChem BioAssay AID1963958 (Molecular Pharmacology Branch, DTP, NCI, 2024)

Test system: MDA-MB-231 multicell spheroids, viability
Experiment: Anticancer human tumor MDA-MB-231 cell line growth inhibition [PI3K];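 further: spheroids exposed to agents for seven days before reading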;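 on viability, T/C: percent of vehicle control luminescence with DMSO treated spheroids as 100%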
Conditions: for IC50: curve of first compound; for viability, T/C: stronger effect = lower value; active means viability on the fitted dose curve at most 10% of control; inactive means the rest
From the text: Combinatorial screen of targeted agents with the PI3K inhibitors inavolisib, alpelisib, duvelisib, and copanlisib in multi-cell type tumor spheroids
A high-throughput screen of multi-cell type tumor spheroids was designed to identify active combinations of targeted small molecules and PI3K pathway inhibitors. Complex spheroids include a stromal component modeled by human endothelial cells (HUVEC) and fibroblasts modeled by human mesenchymal stem cells (MSCs). The concentration ranges selected for each drug and investigational agent were based upon clinically achievable concentrations if the clinical Cmax of the agent was known.
Compounds. The drugs and investigational agents: inavolisib (NSC800729), alpelisib (NSC765974), duvelisib (NSC772469), copanlisib (NSC816437), ipatasertib (NSC767898), afuresertib (NSC778305), talazoparib (NSC767125), sapanisertib (NSC764658), selumetinib (NSC741078), tovorafenib (DAY101, NSC766906), vemurafenib (NSC761431), ravoxertinib (NSC781343), sotorasib (NSC818433), MRTX1133 (NSC 836407), abemaciclib (NSC 768073), palbociclib (NSC758247), venetoclax (NSC 766270), SY5609 (NSC837396), enzalutamide (NSC755605), and darolutamide (NSC825331), were obtained from the National Cancer Institute (NCI) Developmental Therapeutics Program Chemical Repository. The FDA-approved anticancer drug set is available from the NCI Developmental Therapeutics Program. […] The stock solutions were prepared in dimethyl sulfoxide (DMSO, Sigma-Aldrich, St. Louis, MO, cat. D2650) at 800-fold the tested concentration and stored at -70 degrees C prior to their use. All drugs and investigational agents were tested over a range starting from a high concentration at or near the clinical Cmax and decreasing in half-log increments. If the clinical Cmax for an agent had not been determined, the highest concentration tested was 10 microM.
Cell Culture. All cells were maintained in an incubator at 37 degrees C and 5% CO2 with 95% humidity. The PDC lines were cultured according to standard operating procedures established by the NCI PDMR (https://pdmr.cancer.gov/sops/default.htm). All PDCs were thawed and cultured in Matrigel-coated flasks prepared with a working solution of 1X Ham's F-12 nutrient mix, without supplementation (Invitrogen, Waltham, MA, cat. 11765054), 100 U/mL penicillin-streptomycin (Invitrogen, cat. 15140122), and 2.5% Matrigel (Corning Inc., Corning, NY, cat. 354248) for the first three passages. The 354836-022-R-J1-PDC, 475296-252-R-J1-PDC, and 997726-040-R-J2-PDC lines were cultured in 6A media, which includes advanced DMEM/F-12 (Thermo Fisher Scientific, cat. 12634028), 10 mM HEPES (Thermo Fisher Scientific, cat. 15630080), 1X GlutaMAX supplement (Thermo Fisher Scientific, cat. 35050061), 0.1 mg/mL primocin (InvivoGen, San Diego, CA, cat. ant-pm-2), 10% defined fetal bovine serum, heat inactivated (HyClone Laboratories Inc., Logan, UT, cat. SH30070.03HI), 50% L-WRN conditioned media (ATCC, cat. CRL-3276), 1.25 mM N-Acetyl-L-cysteine (Sigma-Aldrich, cat. A9165), 10 mM nicotinamide (Sigma-Aldrich, cat. N0636), 1X B-27 supplement (Thermo Fisher Scientific, cat. 17504044), 1X N-2 supplement (Thermo Fisher Scientific, cat. 17502048), and 10 microM Y-27632 dihydrochloride (Tocris Bioscience, Bristol, United Kingdom, cat. 1254). The 624824-186-R-J2-PDC line was cultured in 6C/Colon 1B media, which includes all 6A media components plus 50 ng/mL human EGF recombinant protein (Thermo Fisher Scientific, cat. PHG0311). […]

Cn1cnc2c(F)c(Nc3ccc(Br)cc3Cl)c(C(=O)NOCCO)cc21 + COc1c(OCCCN2CCOCC2)ccc2c3n(c(=NC(=O)c4cnc(N)nc4)nc12)CCN3
active: viability, T/C (second compound 0.316 µM, first compound 3 µM) 5.36% | viability, T/C (second compound 1 µM, first compound 0.3 µM) 9.99% | viability, T/C (second compound 1 µM, first compound 0.949 µM) 8.63% | viability, T/C (second compound 1 µM, first compound 3 µM) 4.84%
184 nM: IC50 (second compound 0.00316 µM)
inactive: viability, T/C (second compound 0.00316 µM, first compound 0.00949 µM) 60% | viability, T/C (second compound 0.00316 µM, first compound 0.03 µM) 56.6% | viability, T/C (second compound 0.00316 µM, first compound 0.0949 µM) 52.2% | viability, T/C (second compound 0.00316 µM, first compound 0.3 µM) 47.5% | viability, T/C (second compound 0.00316 µM, first compound 0.949 µM) 41.4% | viability, T/C (second compound 0.00316 µM, first compound 3 µM) 29.7% | viability, T/C (second compound 0.01 µM, first compound 0.00949 µM) 62.1% | viability, T/C (second compound 0.01 µM, first compound 0.03 µM) 46.6% | viability, T/C (second compound 0.01 µM, first compound 0.0949 µM) 42.2% | viability, T/C (second compound 0.01 µM, first compound 0.3 µM) 40.4% | viability, T/C (second compound 0.01 µM, first compound 0.949 µM) 41.7% | viability, T/C (second compound 0.01 µM, first compound 3 µM) 23.6% | viability, T/C (second compound 0.0316 µM, first compound 0.00949 µM) 45% | viability, T/C (second compound 0.0316 µM, first compound 0.03 µM) 43.4% | viability, T/C (second compound 0.0316 µM, first compound 0.0949 µM) 38.9% | viability, T/C (second compound 0.0316 µM, first compound 0.3 µM) 33.1% | viability, T/C (second compound 0.0316 µM, first compound 0.949 µM) 28.8% | viability, T/C (second compound 0.0316 µM, first compound 3 µM) 12.9% | viability, T/C (second compound 0.1 µM, first compound 0.00949 µM) 33.7% | viability, T/C (second compound 0.1 µM, first compound 0.03 µM) 30.3% | viability, T/C (second compound 0.1 µM, first compound 0.0949 µM) 27.3% | viability, T/C (second compound 0.1 µM, first compound 0.3 µM) 27.1% | viability, T/C (second compound 0.1 µM, first compound 0.949 µM) 21% | viability, T/C (second compound 0.1 µM, first compound 3 µM) 7.54% | viability, T/C (second compound 0.316 µM, first compound 0.00949 µM) 24.3% | viability, T/C (second compound 0.316 µM, first compound 0.03 µM) 18.7% | viability, T/C (second compound 0.316 µM, first compound 0.0949 µM) 15.8% | viability, T/C (second compound 0.316 µM, first compound 0.3 µM) 14.4% | viability, T/C (second compound 0.316 µM, first compound 0.949 µM) 12.2% | viability, T/C (second compound 1 µM, first compound 0.00949 µM) 17.7% | viability, T/C (second compound 1 µM, first compound 0.03 µM) 14.2% | viability, T/C (second compound 1 µM, first compound 0.0949 µM) 12.5%
40.7 nM: IC50 (second compound 0.01 µM)
< 9.49 nM: IC50 (second compound 0.0316 µM) | IC50 (second compound 0.1 µM) | IC50 (second compound 0.316 µM) | IC50 (second compound 1 µM)
